In patent publication US20170208799A1, “SYNERGISTIC ANTIMICROBIAL COMPOSITION” (Dow Global Technologies LLC, priority 2014, published 2017):

How the values were obtained:
Type in all cases: cell-based
[1] = system: Field isolate, Acid Producing bacteria (APB); assay: Synergy test in 96 well microtiter plate against anaerobic acid producing bacteria; conditions: end point, Environmental isolate APB, 24 hours, 32° C.; for Aqucar TN-50 (ppm THNM) - QA: THNM alone
Procedure: The synergism of the biocides combination of the present invention was determined using the method described by Kull, F. C, et al. in Applied Microbiology 9:538-541 (1961). […] If end point could not be established, the highest concentration of biocide tested will be used as the end point for the calculation and the SI will be recorded in “less than or <” values. […] The type of microorganisms used for the test inoculums, the matrix to support optimum microbial growth during the test period and the medium used to enumerate the microorganisms after specified contact time are summarized in Table 2. Mineral salts medium (MSM No Nutrients). The medium contains (in mg/l) the following components: FeCl3.6H2O (1); CaCl2.2H2O (10); MgSO4.7H2O (22.5); (NH4)2SO4 (40); KH2PO4 (10); and K2HPO4 (25.5). After all components are added to deionized water, the pH of the medium is adjusted to 7.5 before use. [table] Synergy tests of THNM alone and in combination with a second biocide against the different test microorganisms were conducted using standard 96 well microtiter plate assays. The test was carried out by adding 500 uL of matrix, 50 μl of tested organism and 50 μl of each biocide into wells of the microtiter plate. The final biocides and test inoculum concentrations in each well were established based on this total volume. For each experiment, the final concentration of the test organisms was in the range of 10^6 to 10^7 cfu/ml. The highest concentration of THNM and second biocide used in this synergy study was 250 and 100 or 50 ppm (depending on the efficacy of the active), respectively. Eight 2-fold dilutions of each biocide were prepared using an automated liquid handling system. The first biocide was added into the well plate horizontally and the second biocide is added after rotating the plate 90 degrees. Columns nine and ten were reserved for each individual biocide to be tested at each concentration level to achieve at least 4-log bacterial kill or 2-log bacterial count (defined as end point) for synergy index calculation. In case the end point was not achieved, the highest biocide concentration tested was used for synergy index calculation. Wells in Column 11 were used as positive controls; they contained only the media and the test organism. The plates were incubated at 25° C. for aerobic bacteria and 32° C. for anaerobic bacteria. Enumeration was performed 24 hours contact time by employing the MPN method. Numbers of surviving bacteria were determined by removing 20 uL of the cell suspension from each well and adding it into 180 ul of enumeration media (i.e., resazurin TSB plates) then serially dilute in a 96-well block. Plates were incubated for 48 hours or until growth is observed in the control wells.

[2] = system: Aerobic bacteria: Klebsiella pneumoniae (ATCC 8308), Bacillus subtilis (ATCC 8473), Pseudomonas aeruginosa (ATCC 15442), Staphylococcus aureus (ATCC 6538); assay: Synergy test in 96 well microtiter plate against aerobic bacteria; conditions: end point, 24 hours; for Aqucar TN-50 (ppm THNM) - QA: THNM alone
Procedure: The synergism of the biocides combination of the present invention was determined using the method described by Kull, F. C, et al. in Applied Microbiology 9:538-541 (1961). […] If end point could not be established, the highest concentration of biocide tested will be used as the end point for the calculation and the SI will be recorded in “less than or <” values. […] The type of microorganisms used for the test inoculums, the matrix to support optimum microbial growth during the test period and the medium used to enumerate the microorganisms after specified contact time are summarized in Table 2. Mineral salts medium (MSM). The medium contains (in mg/l) the following components: FeCl3.6H2O (1); CaCl2.2H2O (10); MgSO4.7H2O (22.5); (NH4)2SO4 (40); KH2PO4 (10); K2HPO4 (25.5); Yeast Extract (10); and glucose (100). After all components are added to deionized water, the pH of the medium is adjusted to 7.5 before use. [table] Synergy tests of THNM alone and in combination with a second biocide against the different test microorganisms were conducted using standard 96 well microtiter plate assays. The test was carried out by adding 500 uL of matrix, 50 μl of tested organism and 50 μl of each biocide into wells of the microtiter plate. The final biocides and test inoculum concentrations in each well were established based on this total volume. For each experiment, the final concentration of the test organisms was in the range of 10^6 to 10^7 cfu/ml. The highest concentration of THNM and second biocide used in this synergy study was 250 and 100 or 50 ppm (depending on the efficacy of the active), respectively. Eight 2-fold dilutions of each biocide were prepared using an automated liquid handling system. The first biocide was added into the well plate horizontally and the second biocide is added after rotating the plate 90 degrees. Columns nine and ten were reserved for each individual biocide to be tested at each concentration level to achieve at least 4-log bacterial kill or 2-log bacterial count (defined as end point) for synergy index calculation. In case the end point was not achieved, the highest biocide concentration tested was used for synergy index calculation. Wells in Column 11 were used as positive controls; they contained only the media and the test organism. The plates were incubated at 25° C. for aerobic bacteria and 32° C. for anaerobic bacteria. Enumeration was performed 24 hours contact time by employing the MPN method. Numbers of surviving bacteria were determined by removing 20 uL of the cell suspension from each well and adding it into 180 ul of enumeration media (i.e., resazurin TSB plates) then serially dilute in a 96-well block. Plates were incubated for 48 hours or until growth is observed in the control wells.

[3] = system: Desulfuvibrio longus (D. longus); assay: Synergy test in 96 well microtiter plate against anaerobic sulfate reducing bacteria; conditions: end point, 32° C.; for Aqucar TN-50 (ppm THNM) - QA: THNM alone
Procedure: The synergism of the biocides combination of the present invention was determined using the method described by Kull, F. C, et al. in Applied Microbiology 9:538-541 (1961). […] If end point could not be established, the highest concentration of biocide tested will be used as the end point for the calculation and the SI will be recorded in “less than or <” values. […] The type of microorganisms used for the test inoculums, the matrix to support optimum microbial growth during the test period and the medium used to enumerate the microorganisms after specified contact time are summarized in Table 2. SNF (per liter of deionized water): NaCl, 3.12 gm; NaHCO3 0.131 gm; Na2SO4 0.17 gm; 1% KCl Solution (in water) 4.77 g; 1% CaCl2 Solution (in water) 7.2 gm; 1% MgSO4 Solution (in water) 5.45 gm; 1% Na2CO3 Solution (in water) 4.39 gm. Adjust the pH to 7 before use. Modified Baar's medium (MB): MgSO4, 2 g/l; sodium citrate, 5 g/l; CaSO4, 1 g/l; NH4Cl, g/l; K2HPO4, 0.5 g/l; sodium lactate, 3.5 g/l; yeast extract, 1 g/l; Sodium thioglycolate 0. g/l. Fe(NH4)2(SO4)2 1 g/l, deionized water. Adjust the pH to 7.5 before sodium thioglycolate is added. [table] Synergy tests of THNM alone and in combination with a second biocide against the different test microorganisms were conducted using standard 96 well microtiter plate assays. The test was carried out by adding 500 uL of matrix, 50 μl of tested organism and 50 μl of each biocide into wells of the microtiter plate. The final biocides and test inoculum concentrations in each well were established based on this total volume. For each experiment, the final concentration of the test organisms was in the range of 10^6 to 10^7 cfu/ml. The highest concentration of THNM and second biocide used in this synergy study was 250 and 100 or 50 ppm (depending on the efficacy of the active), respectively. Eight 2-fold dilutions of each biocide were prepared using an automated liquid handling system. The first biocide was added into the well plate horizontally and the second biocide is added after rotating the plate 90 degrees. Columns nine and ten were reserved for each individual biocide to be tested at each concentration level to achieve at least 4-log bacterial kill or 2-log bacterial count (defined as end point) for synergy index calculation. In case the end point was not achieved, the highest biocide concentration tested was used for synergy index calculation. Wells in Column 11 were used as positive controls; they contained only the media and the test organism. The plates were incubated at 25° C. for aerobic bacteria and 32° C. for anaerobic bacteria. Enumeration was performed 24 hours contact time by employing the MPN method. Numbers of surviving bacteria were determined by removing 20 uL of the cell suspension from each well and adding it into 180 ul of enumeration media (i.e., resazurin TSB plates) then serially dilute in a 96-well block. Plates were incubated for 48 hours or until growth is observed in the control wells.

**Q.** Which “Aqucar TN-50 (ppm THNM) - QA” value ([1]; Table 11) does the source give for `O=[N+]([O-])C(CO)(CO)CO` [THNM, Tris(hydroxymethyl)nitromethane] here?
**A.** The value was greater than 250 ppm.

**Q.** And the “Aqucar TN-50 (ppm THNM) - QA” value ([1]; Table 12)?
**A.** Its value is greater than 250 ppm.

**Q.** And the “Aqucar TN-50 (ppm THNM) - QA” value ([1]; Table 13)?
**A.** Its value is greater than 250 ppm.

**Q.** What about the “Aqucar TN-50 (ppm THNM) - QA” value ([1]; Table 14) of the same compound?
**A.** The value was greater than 250 ppm.

**Q.** What about the “Aqucar TN-50 (ppm THNM) - QA” value ([2]; Table 3, aerobic bacteria, 25° C.) of the same compound?
**A.** The value was greater than 250 ppm.

**Q.** What about the “Aqucar TN-50 (ppm THNM) - QA” value ([2]; Table 4, aerobic bacteria, 25° C.) of the same compound?
**A.** Its value is greater than 250 ppm.

**Q.** And the “Aqucar TN-50 (ppm THNM) - QA” value ([2]; Table 5, aerobic bacteria, 25° C.)?
**A.** Its value is greater than 250 ppm.

**Q.** And the “Aqucar TN-50 (ppm THNM) - QA” value ([2]; Table 6)?
**A.** The value was greater than 250 ppm.

**Q.** What about the “Aqucar TN-50 (ppm THNM) - QA” value ([3]; Table 7, 24 hours) of the same compound?
**A.** Its value is 250.00 ppm.

**Q.** What about the “Aqucar TN-50 (ppm THNM) - QA” value ([3]; Table 8, 24 hours) of the same compound?
**A.** Its value is 250.00 ppm.

**Q.** And the “Aqucar TN-50 (ppm THNM) - QA” value ([3]; Table 9, 24 hours)?
**A.** The value was 250.00 ppm.

**Q.** And the “Aqucar TN-50 (ppm THNM) - QA” value ([3]; Table 10, 24 hours)?
**A.** The value was 250.00 ppm.

**Q.** What does the source list for “Benzalkonium chloride (benzyl-C8-18-alkyldimethyl, chlorides) [BKC]”?
**A.** BKC (ppm ADBAC) - QB ([1]; BKC alone): 12.50 ppm; Benzalkonium Chloride (ppm BKC) - QB ([2]; BKC alone, aerobic bacteria, 25° C.): >50 ppm; BKC (ppm ADBAC) - QB ([3]; BKC alone, 24 hours): 3.13 ppm

**Q.** Which “Maquat MC1412 (ppm ADBAC) - QB” value ([1]; ADBAC alone) does the source give for “N-alkyl (50% C14, 40% C12, 10% C16) dimethylbenzyl ammonium Chloride [ADBAC]” here?
**A.** Its value is 12.5 ppm.

**Q.** And the “Maquat MC1412 (ppm ADBAC) - QB” value ([2]; ADBAC alone, aerobic bacteria, 25° C.)?
**A.** Its value is greater than 50 ppm.

**Q.** What about the “Maquat MC1412 (ppm ADBAC) - QB” value ([3]; ADBAC alone, 24 hours) of the same compound?
**A.** Its value is 6.25 ppm.
